For this assay, the system named is MDA-MB-231. The assay can be described thus: Cytotoxicity against human MDA-MB-231 cells. In kind it is functional, cell-based.

Molecules are shown by their SMILES.

`COc1ccc2c(C=O)c(-c3ccccc3)[nH]c2c1`: the IC50 is, setting by setting: (read-out: IC50) 240 nM; (read-out: pIC50 (converted)) 240 nM.

For `COc1ccc(-c2[nH]c3cc(OC)c(OC)cc3c2C=O)cc1`, the IC50 is, setting by setting: (read-out: IC50) 220 nM; (read-out: pIC50 (converted)) 220 nM.

Take `CCC(C)c1ccc2[nH]c(-c3ccc(OC)cc3)c(C=O)c2c1` (stereo unspecified): the IC50 (read-out: IC50) came to 72 nM and the IC50 (read-out: pIC50 (converted)) was 71.9 nM.
